{"source": "patent US20110293672A1", "about": "“PANCREATIC TUMOUR TREATMENT” (BIOCOMPATIBLES UK LIMITED, priority 2008, published 2011)", "key": {"[1]": {"test_system": "advanced pancreas cancer", "conditions": "single agent, patients with advanced pancreas cancer; cited from earlier work"}, "[2]": {"test_system": "PSN1 (Human Pancreatic Carcinoma) Cell Line", "assay": "MTS cytotoxicity of irinotecan and topotecan solutions on PSN1 cells", "format": "cell-based", "conditions": "for IC50: read-out: Estimated IC50 conc.", "method": "20,000 PSN1 cells were seeded in 96 well plates and left to adhere to the well surface overnight. The drug solutions underwent serial dilutions from 1000 μg/ml to 1×10^−8 μg/ml in cell culture media. […] After 24, 48 and 72 hrs, the cells were washed (×3) with PBS and 100 μl media was added. The MTS assay was conducted by adding 20 μl MTS solution to each well and incubating (37° C., 5% CO2) for 2 hrs. The absorbance of each well at 490 nm was determined using a Biotek plate reader."}}, "note": "Read-outs that look alike come from different tables or passages of the source."}
{"smiles": "O=c1[nH]cc(F)c(=O)[nH]1", "note": "[5-fluorouracil]", "values": [{"measurement": "Median survival", "setting": "[1]", "result": 4.4, "unit": "months"}]}
{"smiles": "CCc1c2c(nc3ccc(OC(=O)N4CCC(N5CCCCC5)CC4)cc13)-c1cc3c(c(=O)n1C2)COC(=O)[C@]3(O)CC", "note": "[Irinotecan, irinotecan]", "values": [{"measurement": "Concentration at which a reduction in cell viability began", "setting": "[2]; 24 hrs exposure", "result": 100, "unit": "µg/mL"}, {"measurement": "Concentration at which a reduction in cell viability began", "setting": "[2]; 48 hours", "result": 10, "unit": "µg/mL"}, {"measurement": "Concentration at which an effect on cell viability began", "setting": "[2]; 72 hours", "result": "around 50 μg/ml"}, {"measurement": "Effect on cell viability at lower concentration", "setting": "[2]; <1 μg/ml, even after 72 hours", "result": "no detrimental effect in cell viability"}, {"measurement": "IC50", "setting": "[2]; Homo sapiens, 24 hrs exposure", "result": 100, "unit": "µg/mL"}, {"measurement": "IC50", "setting": "[2]; Homo sapiens, 48 hrs exposure", "result": 35, "unit": "µg/mL"}, {"measurement": "IC50", "setting": "[2]; Homo sapiens, 72 hrs exposure", "result": 30, "unit": "µg/mL"}]}
{"smiles": "Nc1ccn([C@@H]2O[C@H](CO)[C@@H](O)C2(F)F)c(=O)n1", "note": "[gemcitabine]", "values": [{"measurement": "Median survival", "setting": "[1]", "result": 5.7, "unit": "months"}]}
{"smiles": "CC[C@@]1(O)C(=O)OCc2c1cc1n(c2=O)Cc2cc3c(CN(C)C)c(O)ccc3nc2-1", "note": "[Topotecan, topotecan]", "values": [{"measurement": "Relative potency in reducing PSN1 cell viability", "setting": "[2]", "result": "more potent than irinotecan"}, {"measurement": "Concentration at which a reduction in cell viability began", "setting": "[2]; 24 hrs exposure", "result": 1, "unit": "µg/mL"}, {"measurement": "Concentration at which a reduction in cell viability began", "setting": "[2]; 48 hours", "result": 0.1, "unit": "µg/mL"}, {"measurement": "Concentration at which an effect on cell viability began", "setting": "[2]; 72 hours", "result": "1e-07", "unit": "µg/mL"}, {"measurement": "Concentration needed for a reduction in cell viability below 80%", "setting": "[2]; 72 hours", "result": 0.01, "unit": "µg/mL"}, {"measurement": "IC50", "setting": "[2]; Homo sapiens, 24 hrs exposure", "result": 600, "unit": "µg/mL"}, {"measurement": "viability at 0.1 µg/mL", "setting": "[2]; Homo sapiens, 48 hours, 0.1 μg/ml", "result": "~80", "unit": "%"}, {"measurement": "IC50", "setting": "[2]; Homo sapiens, 48 hrs exposure", "result": 0.6, "unit": "µg/mL"}, {"measurement": "IC50", "setting": "[2]; Homo sapiens, 72 hrs exposure", "result": 0.1, "unit": "µg/mL"}]}
